System: interaction between CaMKIIα and calmodulin
Assay: Real-time observation of calcium-dependent nanocluster formation (CaMKIIα-CaM interaction) in cotransfected HeLa cells
Type: cell-based
Conditions: ionomycin 1 mM; 80 seconds after treatment; HeLa cells cotransfected with mCherry-CaMKII[296-315]-AD and CaM-ECFP-FT; fluorescence distributed again as time passes
Method: To investigate whether the system of the present disclosure can be used for real-time observation of an intermolecular interaction regulated by calcium through a calcium dependent nanocluster formation, the present inventors cotransfected HeLa cells with the mCherry-CaMKII[296-315]-AD construct constructed in example 1-18 and the CaM-ECFP-FT construct constructed in example 1-19 through the method described above. Thereafter, the cells were treated with 1 mM of ionomycin as ionophore which facilitates calcium ion penetration.
Then, fluorescence was distributed again as time passes.

C[C@H](CCC(=O)O)C[C@H](C)C[C@H](C)C(=O)/C=C(\O)[C@H](C)C[C@H](C)C/C=C/[C@@H](C)[C@@H](O)[C@@H](C)[C@@H](O)C[C@@H]1CC[C@@](C)([C@H]2CC[C@@](C)([C@@H](C)O)O2)O1 [ionomycin]
distribution and intensity of fluorescence (nanocluster formation): a strong fluorescence dot appeared in cytoplasm due to a nanocluster formation

Source: patent publication US9784747B2, “Method and kit for analyzing protein-protein interaction using nanocluster formation” (KOREA ADVANCED INSTITUTE OF SCIENCE AND TECHNOLOGY, priority 2011, dated 2017)
